Structures can show the parent of a compound that is named as a salt. Calls of active or inactive are those of the source.
Legend:
[1] = biological target: T1, Peroxisome proliferator-activated receptor gamma/Nuclear receptor coactivator 2 (Homo sapiens, UniProt P37231); type: functional
[2] = biological target: T2, Peroxisome proliferator-activated receptor gamma/Nuclear receptor coactivator 1 (Homo sapiens, UniProt P37231); type: functional
[3] = biological target: T3, Peroxisome proliferator-activated receptor gamma/Nuclear receptor coactivator 3 (Homo sapiens, UniProt P37231); type: functional
[4] = biological target: Heat shock protein HSP 90-alpha (Homo sapiens, UniProt P07900); type: functional, organism-based
[5] = biological target: T4, High affinity choline transporter 1 (Homo sapiens, UniProt Q9GZV3); assay: CHT inhibitors, dose response, cell-based, 5-point CRC, membrane potential dye (AID 504840); type: functional
T4 sequence (Q9GZV3 whole entry): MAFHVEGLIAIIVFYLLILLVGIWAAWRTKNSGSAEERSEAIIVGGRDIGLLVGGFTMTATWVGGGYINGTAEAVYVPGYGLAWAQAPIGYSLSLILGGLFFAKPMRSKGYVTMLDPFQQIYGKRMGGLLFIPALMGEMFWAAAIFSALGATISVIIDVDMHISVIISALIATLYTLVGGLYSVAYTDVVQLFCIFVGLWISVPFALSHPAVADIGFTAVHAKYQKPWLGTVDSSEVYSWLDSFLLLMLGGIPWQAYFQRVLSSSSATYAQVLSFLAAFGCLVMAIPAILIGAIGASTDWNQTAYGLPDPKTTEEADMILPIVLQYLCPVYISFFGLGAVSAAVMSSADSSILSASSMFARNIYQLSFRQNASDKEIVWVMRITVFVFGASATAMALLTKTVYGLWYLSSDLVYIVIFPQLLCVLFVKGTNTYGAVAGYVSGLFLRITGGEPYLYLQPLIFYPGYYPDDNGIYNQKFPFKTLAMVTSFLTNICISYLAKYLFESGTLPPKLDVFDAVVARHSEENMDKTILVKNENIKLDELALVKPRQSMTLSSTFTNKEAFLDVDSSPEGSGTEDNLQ

H9c2 = assay: cells; type: functional, cell-based; conditions: Rattus norvegicus, H9c2, Myocardium;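 further: confirmatory concentration-response retest of ultra-high-throughput screening hits for modulation of myocardial damage; cell death induced by hydrogen peroxide oxidative stress; compound pretreatment for 60 min then peroxide exposure for 2 h; potency is for protecting the cells against peroxide damage rather than for killing them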
[6] = biological target: T4, High affinity choline transporter 1; assay: CHT inhibitors, dose response, cell-based, 10-point CRC, membrane potential dye (AID 588401); type: functional;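 further: membrane potential dye fluorescence of choline-evoked depolarization via CHT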
Bcl-2-related protein A1 = biological target: T5, Bcl-2-related protein A1 (Mus musculus, UniProt Q07440); type: functional;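 further: confirmatory dose–response counterscreen on Bfl-1, used to check hits from a UBC13 polyubiquitin inhibitor campaign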
T5 sequence (Q07440 whole entry): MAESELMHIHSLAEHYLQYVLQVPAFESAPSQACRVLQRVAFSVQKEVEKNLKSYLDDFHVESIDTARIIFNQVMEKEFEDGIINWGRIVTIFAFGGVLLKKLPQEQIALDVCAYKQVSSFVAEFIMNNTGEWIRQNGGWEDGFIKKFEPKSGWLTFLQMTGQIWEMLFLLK

[7] = biological target: T6, Ubiquitin-conjugating enzyme E2 N (Homo sapiens, UniProt P61088); type: functional
T6 sequence (P61088 whole entry): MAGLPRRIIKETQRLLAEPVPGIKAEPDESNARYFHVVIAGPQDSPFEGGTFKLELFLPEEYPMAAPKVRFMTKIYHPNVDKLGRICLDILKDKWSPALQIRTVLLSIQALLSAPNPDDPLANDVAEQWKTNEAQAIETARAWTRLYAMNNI

[8] = biological target: T6, Ubiquitin-conjugating enzyme E2 N; type: functional; remark: listed apart in the source
[9] = biological target: T7, Apoptotic protease-activating factor 1 (Homo sapiens, UniProt O14727); type: functional
T7 sequence (O14727 whole entry): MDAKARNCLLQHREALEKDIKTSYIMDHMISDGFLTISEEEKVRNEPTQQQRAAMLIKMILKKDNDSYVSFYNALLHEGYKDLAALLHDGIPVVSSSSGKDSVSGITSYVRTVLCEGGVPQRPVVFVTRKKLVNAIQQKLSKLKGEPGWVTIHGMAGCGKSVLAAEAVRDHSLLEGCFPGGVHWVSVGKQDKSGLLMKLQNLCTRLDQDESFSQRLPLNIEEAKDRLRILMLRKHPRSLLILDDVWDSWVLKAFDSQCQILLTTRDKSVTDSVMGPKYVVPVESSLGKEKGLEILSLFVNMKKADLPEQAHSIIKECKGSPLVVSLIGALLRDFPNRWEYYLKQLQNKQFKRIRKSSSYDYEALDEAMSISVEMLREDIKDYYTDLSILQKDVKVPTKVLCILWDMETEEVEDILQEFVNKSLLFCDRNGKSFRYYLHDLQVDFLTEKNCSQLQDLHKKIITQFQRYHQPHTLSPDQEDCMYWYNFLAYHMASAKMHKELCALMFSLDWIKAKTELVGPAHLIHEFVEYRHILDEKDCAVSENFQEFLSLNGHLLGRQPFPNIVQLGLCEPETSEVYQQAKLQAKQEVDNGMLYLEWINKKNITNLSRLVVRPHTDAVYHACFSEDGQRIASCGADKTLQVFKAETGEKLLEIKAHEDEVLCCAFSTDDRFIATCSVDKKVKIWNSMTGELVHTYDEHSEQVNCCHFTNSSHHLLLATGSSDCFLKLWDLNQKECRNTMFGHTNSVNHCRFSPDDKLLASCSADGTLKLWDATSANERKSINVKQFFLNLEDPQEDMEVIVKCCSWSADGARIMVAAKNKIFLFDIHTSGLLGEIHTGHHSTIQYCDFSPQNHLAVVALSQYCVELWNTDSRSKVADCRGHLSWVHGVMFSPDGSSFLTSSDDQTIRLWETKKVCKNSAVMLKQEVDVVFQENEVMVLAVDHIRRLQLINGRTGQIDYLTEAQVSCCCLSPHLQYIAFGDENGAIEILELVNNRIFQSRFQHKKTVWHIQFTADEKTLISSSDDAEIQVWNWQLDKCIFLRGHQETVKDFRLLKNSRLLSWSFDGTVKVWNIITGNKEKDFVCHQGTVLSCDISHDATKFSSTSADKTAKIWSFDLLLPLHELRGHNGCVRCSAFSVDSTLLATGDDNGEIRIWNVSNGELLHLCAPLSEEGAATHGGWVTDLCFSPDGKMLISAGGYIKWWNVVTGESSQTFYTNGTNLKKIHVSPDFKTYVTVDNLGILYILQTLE

[10] = biological target: 26S proteasome non-ATPase regulatory subunit 14 (Homo sapiens, UniProt O00487); assay: inhibition of proteasome subunit RPN11 – biochemical, fluorescence polarization, uHTS hits, confirmation (AID 602368); type: functional
[11] = biological target: 72 kDa type IV collagenase (Homo sapiens, UniProt P08253); assay: Dose Response validation of uHTS RPN11 inhibitor hits using a MMP-2 Fluorescence assay.; type: functional
Prothrombin = Prothrombin (Bos taurus, UniProt P00735); assay: thrombin inhibition, dose response, biochemical, fluorescence polarization, uHTS hits (AID 602369); type: functional
[12] = biological target: T2, Peroxisome proliferator-activated receptor gamma/Nuclear receptor coactivator 1; assay: (§1) TR-FRET dose response biochemical High Throughput Screening assay for agonists of the steroid receptor coactivator 1 (SRC-1) recruitment by the peroxisome proliferator-activated receptor gamma (PPAR gamma): non-selective agonists. [Related pubchem assays (depositor defined):AID1300, AID1808, AID504735, AID631]; type: protein assay
[13] = biological target: T3, Peroxisome proliferator-activated receptor gamma/Nuclear receptor coactivator 3; assay: as §1, with “3 (SRC-3)” for “1 (SRC-1)”, “assays: 1301 (Confirmation screen.), 1048 (Primary screen.)]” for “assays (depositor defined):AID1300, AID1808, AID504735, AID631]”; type: functional
[14] = biological target: T1, Peroxisome proliferator-activated receptor gamma/Nuclear receptor coactivator 2; assay: TR-FRET dose response biochemical High Throughput Screening assay for agonists of the steroid receptor coactivator 2 (SRC-2) recruitment by the peroxisome proliferator-activated receptor gamma (PPAR gamma): non-selective agonists. [Related pubchem assays: 1297, 1032 ]; type: functional
[15] = biological target: T8, Long-chain-fatty-acid--AMP ligase FadD28 (Mycobacterium tuberculosis, UniProt P9WQ59); assay: Fluorescence polarization aasay to screen for inhibitors that compete for the binding of FadD28 to a bisubstrate Measured in Biochemical System Using Plate Reader - 2147-01_Inhibitor_Dose_CherryPick_Activity.; type: functional, Mycobacterium tuberculosis H37Rv
T8 sequence (P9WQ59 whole entry): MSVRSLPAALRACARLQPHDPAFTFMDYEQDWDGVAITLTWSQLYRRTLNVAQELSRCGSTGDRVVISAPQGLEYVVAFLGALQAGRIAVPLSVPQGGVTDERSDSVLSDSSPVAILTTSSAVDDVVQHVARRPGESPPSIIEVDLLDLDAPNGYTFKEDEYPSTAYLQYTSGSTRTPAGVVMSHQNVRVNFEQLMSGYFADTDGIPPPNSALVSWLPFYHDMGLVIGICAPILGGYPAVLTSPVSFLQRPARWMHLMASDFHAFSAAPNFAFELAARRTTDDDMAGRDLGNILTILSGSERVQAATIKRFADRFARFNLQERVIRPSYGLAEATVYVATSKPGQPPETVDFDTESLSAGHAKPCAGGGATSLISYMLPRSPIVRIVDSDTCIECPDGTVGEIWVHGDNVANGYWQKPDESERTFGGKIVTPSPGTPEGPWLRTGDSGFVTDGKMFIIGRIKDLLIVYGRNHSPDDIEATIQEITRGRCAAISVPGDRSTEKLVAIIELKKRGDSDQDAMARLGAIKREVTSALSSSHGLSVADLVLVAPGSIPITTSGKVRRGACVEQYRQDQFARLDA

[16] = Luminescence Cell-Based Dose Retest to Confirm Inhibitors of Cancer Stem Cells. [Related pubchem assays (depositor defined):AID2717, AID2721]; type: functional; conditions: Homo sapiens
[17] = HeLa cell cytotoxicity, dose response, cytotoxicity control for MgcRacGAP inhibitor project (AID 624300); type: functional
[18] = biological target: T9, Rac GTPase-activating protein 1 (Homo sapiens, UniProt Q9H0H5); assay: MgcRacGAP GTPase-activating activity inhibitors, confirmation, biochemical, ADP Hunter fluorescence, primary and confirmatory (AID 624330); type: functional
T9 sequence (Q9H0H5 whole entry): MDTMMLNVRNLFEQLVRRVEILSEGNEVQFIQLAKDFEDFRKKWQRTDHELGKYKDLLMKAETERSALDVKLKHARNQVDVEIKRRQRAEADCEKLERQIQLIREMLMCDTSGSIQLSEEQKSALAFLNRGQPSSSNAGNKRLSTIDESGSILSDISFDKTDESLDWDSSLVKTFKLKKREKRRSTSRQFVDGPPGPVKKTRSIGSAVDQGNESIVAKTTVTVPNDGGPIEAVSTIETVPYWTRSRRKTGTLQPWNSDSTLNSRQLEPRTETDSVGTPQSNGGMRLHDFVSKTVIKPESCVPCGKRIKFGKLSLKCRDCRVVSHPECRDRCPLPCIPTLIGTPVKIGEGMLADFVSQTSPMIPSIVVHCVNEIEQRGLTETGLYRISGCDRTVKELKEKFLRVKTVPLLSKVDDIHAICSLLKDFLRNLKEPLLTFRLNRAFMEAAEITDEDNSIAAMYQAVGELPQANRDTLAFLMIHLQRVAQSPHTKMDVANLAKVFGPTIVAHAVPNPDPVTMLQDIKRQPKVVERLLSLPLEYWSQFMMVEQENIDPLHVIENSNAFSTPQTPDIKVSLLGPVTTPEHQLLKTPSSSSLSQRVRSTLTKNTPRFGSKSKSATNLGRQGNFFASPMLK

[19] = test system: Streptococcus sp. 'group A'; assay: growth inhibition of control SK(-) GAS strain, dose response, counter-screen for streptokinase expression inhibitor project, luminescence, kanamycin, BacTiterGlo, confirmation (AID 1900); type: functional, organism-based
Streptococcus = assay: Group A Streptococcus viability loss, dose response, counter-screen for streptokinase expression inhibitor project, luminescence, BacTiterGlo (AID 1915); type: functional, organism-based;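 further: potency for reduction of bacterial viability or growth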
Escherichia coli = assay: microbe, parasite or virus in culture
Estrogen receptor beta = Estrogen receptor beta (Homo sapiens, UniProt Q92731);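 further: recombinant ER-beta bound to coactivator SRC1 peptide in presence of estradiol agonist; inhibitors block coactivator peptide binding and lower the FRET signal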

T3 sequence (P37231 whole entry): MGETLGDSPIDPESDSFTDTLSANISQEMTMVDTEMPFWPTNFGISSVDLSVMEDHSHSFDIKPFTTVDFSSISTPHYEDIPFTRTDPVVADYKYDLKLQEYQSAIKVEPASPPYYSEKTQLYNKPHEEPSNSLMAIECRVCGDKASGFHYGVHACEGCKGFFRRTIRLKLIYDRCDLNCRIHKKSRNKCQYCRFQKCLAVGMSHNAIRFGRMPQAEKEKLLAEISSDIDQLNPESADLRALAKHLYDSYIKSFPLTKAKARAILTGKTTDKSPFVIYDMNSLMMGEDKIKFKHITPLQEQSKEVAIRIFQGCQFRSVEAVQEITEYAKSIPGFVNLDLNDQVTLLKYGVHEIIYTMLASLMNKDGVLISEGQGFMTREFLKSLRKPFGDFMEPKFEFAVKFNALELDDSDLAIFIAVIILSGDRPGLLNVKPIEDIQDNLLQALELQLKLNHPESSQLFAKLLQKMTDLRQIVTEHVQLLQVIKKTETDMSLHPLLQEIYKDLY
T3 sequence (Q9Y6Q9 whole entry, further chain): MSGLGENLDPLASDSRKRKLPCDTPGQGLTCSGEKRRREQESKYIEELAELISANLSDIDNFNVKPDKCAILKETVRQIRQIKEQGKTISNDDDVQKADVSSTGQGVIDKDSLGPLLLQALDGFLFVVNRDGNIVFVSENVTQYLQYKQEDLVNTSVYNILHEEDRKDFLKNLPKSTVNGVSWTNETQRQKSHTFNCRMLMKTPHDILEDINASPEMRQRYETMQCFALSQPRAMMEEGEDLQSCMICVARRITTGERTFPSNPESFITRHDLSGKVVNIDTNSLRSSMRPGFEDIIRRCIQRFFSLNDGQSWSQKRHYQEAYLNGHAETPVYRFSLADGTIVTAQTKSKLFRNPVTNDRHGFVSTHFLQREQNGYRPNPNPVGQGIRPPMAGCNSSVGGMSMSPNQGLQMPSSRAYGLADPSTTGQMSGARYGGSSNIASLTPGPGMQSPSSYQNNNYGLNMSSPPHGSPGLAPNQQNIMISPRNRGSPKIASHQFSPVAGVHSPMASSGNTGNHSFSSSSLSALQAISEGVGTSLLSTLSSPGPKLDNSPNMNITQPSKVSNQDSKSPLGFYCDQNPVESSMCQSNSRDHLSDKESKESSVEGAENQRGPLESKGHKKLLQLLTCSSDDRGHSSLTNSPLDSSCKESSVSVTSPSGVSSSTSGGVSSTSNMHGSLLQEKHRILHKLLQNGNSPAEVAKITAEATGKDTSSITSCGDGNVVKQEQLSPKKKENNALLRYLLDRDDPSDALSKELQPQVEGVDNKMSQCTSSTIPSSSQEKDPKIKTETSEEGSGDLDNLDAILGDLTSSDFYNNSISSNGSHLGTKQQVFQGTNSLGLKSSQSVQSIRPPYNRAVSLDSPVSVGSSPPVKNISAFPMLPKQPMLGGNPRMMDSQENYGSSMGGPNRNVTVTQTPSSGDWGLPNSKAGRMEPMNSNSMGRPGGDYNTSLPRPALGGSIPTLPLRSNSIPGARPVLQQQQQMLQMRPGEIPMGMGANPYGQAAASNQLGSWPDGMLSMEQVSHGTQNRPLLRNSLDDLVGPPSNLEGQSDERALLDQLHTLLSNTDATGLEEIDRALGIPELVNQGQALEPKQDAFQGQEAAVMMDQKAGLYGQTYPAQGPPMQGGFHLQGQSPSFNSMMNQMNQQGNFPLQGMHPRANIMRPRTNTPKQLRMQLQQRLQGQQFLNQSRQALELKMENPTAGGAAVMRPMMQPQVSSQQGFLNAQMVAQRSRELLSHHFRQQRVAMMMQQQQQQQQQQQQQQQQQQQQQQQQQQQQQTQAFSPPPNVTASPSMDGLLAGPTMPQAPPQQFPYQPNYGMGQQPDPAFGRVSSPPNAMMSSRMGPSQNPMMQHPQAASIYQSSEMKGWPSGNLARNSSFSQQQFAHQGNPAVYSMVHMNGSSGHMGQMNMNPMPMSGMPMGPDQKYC
T2 sequence (P37231 whole entry): as the sequence (P37231 whole entry) above
T2 sequence (Q15788 whole entry, further chain): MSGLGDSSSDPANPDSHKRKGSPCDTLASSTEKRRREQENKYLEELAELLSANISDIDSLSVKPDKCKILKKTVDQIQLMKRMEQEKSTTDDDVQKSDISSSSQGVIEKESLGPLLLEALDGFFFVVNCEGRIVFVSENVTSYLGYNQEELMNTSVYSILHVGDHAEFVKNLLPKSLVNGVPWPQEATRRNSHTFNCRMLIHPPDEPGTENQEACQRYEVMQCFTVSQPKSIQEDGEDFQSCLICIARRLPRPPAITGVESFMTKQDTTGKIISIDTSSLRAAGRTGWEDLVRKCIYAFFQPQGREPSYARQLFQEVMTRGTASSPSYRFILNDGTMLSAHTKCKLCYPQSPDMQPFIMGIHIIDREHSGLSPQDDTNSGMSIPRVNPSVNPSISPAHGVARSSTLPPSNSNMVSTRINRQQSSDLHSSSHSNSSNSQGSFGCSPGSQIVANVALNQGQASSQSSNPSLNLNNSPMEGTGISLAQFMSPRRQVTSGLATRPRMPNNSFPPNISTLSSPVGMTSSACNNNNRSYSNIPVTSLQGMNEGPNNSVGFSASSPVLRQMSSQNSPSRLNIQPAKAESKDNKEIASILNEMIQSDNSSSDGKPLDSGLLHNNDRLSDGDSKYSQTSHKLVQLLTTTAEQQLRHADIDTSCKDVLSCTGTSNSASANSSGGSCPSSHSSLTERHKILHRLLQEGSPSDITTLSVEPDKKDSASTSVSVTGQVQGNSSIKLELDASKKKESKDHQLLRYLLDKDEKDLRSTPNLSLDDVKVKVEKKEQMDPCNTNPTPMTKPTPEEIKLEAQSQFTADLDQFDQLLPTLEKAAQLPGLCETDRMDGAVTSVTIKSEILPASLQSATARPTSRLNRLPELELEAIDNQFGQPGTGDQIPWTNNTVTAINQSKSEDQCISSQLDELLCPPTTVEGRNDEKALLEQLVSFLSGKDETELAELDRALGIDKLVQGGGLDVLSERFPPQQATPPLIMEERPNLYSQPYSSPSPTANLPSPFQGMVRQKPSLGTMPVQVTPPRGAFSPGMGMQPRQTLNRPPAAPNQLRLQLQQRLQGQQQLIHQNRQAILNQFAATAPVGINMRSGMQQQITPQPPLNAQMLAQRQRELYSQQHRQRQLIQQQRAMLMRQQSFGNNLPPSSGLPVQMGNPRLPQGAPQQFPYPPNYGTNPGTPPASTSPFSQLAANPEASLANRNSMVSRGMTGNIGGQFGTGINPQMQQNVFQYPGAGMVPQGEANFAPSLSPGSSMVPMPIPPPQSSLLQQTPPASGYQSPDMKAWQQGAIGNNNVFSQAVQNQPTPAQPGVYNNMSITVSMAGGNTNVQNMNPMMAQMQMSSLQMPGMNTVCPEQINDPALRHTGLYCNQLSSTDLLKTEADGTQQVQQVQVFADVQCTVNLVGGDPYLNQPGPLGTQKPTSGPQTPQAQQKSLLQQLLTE
Chain of 72 kDa type IV collagenase (P08253 whole entry): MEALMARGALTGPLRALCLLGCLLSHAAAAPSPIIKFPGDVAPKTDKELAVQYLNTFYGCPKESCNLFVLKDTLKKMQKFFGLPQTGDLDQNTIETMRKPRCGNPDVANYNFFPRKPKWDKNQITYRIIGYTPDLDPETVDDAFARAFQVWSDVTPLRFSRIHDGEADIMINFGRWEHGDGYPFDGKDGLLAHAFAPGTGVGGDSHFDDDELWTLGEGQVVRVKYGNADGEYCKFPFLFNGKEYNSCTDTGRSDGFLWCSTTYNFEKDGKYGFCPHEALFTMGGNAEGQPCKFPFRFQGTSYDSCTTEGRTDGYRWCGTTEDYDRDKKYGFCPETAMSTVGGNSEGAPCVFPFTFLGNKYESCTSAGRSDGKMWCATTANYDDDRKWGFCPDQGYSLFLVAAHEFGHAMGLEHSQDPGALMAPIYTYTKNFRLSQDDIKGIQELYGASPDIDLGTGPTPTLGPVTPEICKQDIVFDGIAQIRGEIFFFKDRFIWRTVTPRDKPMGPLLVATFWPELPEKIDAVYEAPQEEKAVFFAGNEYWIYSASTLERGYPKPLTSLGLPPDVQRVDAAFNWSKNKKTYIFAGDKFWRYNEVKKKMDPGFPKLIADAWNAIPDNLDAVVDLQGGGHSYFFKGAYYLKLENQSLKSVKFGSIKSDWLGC
Chain of 26S proteasome non-ATPase regulatory subunit 14 (O00487 whole entry): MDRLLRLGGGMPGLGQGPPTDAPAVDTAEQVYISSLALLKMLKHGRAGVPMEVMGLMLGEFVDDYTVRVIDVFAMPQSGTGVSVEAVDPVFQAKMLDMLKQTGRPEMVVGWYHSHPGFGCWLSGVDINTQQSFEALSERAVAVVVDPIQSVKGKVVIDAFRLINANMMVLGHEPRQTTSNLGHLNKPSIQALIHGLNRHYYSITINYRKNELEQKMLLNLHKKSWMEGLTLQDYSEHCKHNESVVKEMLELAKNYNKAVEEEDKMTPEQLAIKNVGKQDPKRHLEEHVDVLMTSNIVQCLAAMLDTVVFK

Oc1c(Br)cc(Br)cc1/C=N/Cc1ccc(F)cc1
EC50 [1]: 38.3 µM (not active) | EC50 [2]: > 79.4 µM (not active) | EC50 [3]: > 79.4 µM (not active) | AC50 [4]: 6.15 µM (active) | IC50 [5]: 9.21 µM (active) | IC50 (H9c2): > 79 µM (inactive) | IC50 [6]: 3.64 µM (active)

COc1ccc(NS(=O)(=O)c2ccc(C)c(NC(=O)CN3C(=O)NC4(CCCC4)C3=O)c2)cc1
IC50 (Bcl-2-related protein A1): > 20 µM (inactive) | IC50 [7]: 16.3 µM (active) | IC50 [8]: > 20 µM (inactive) | IC50 [9]: 23.2 µM (active) | IC50 [10]: 3.31 µM (active) | IC50 [11]: > 100 µM (inactive) | IC50 (Prothrombin): 79.2 µM (active)

O=C(O)COc1ccc2c(c1Cl)N=S=N2
EC50 [12]: 9.32 µM (active) | EC50 [13]: 59 µM (not active) | EC50 [14]: 12.5 µM (not active)

Cc1ccc(C[S+]([O-])Cc2ccc(C(=O)NC3CCCC(C)C3C)o2)cc1 (stereo not drawn)
IC50 [5]: 9.8 µM (active) | IC50 [6]: 7.23 µM (active)

Cc1nc(N)sc1C(=O)N/N=C/c1c[nH]c2ccccc12
IC50 (Bcl-2-related protein A1): > 20 µM (inactive) | IC50 [7]: 1.33 µM (active) | IC50 [8]: 1.25 µM (active) | AC50 [15]: 55.1 µM (active)

O=C(c1ccc(OCCN2CCCCC2)cc1)c1c(-c2ccc(O)cc2)sc2cc(O)ccc12 [RALOXIFENE HYDROCHLORIDE]
AC50 [16]: 1.75 µM (active) | IC50 (Bcl-2-related protein A1): > 20 µM (inactive) | IC50 [7]: 14.2 µM (active) | IC50 [8]: 17.5 µM (active) | CC50 [17]: 99.6 µM (active) | IC50 [18]: 27.8 µM (active)

CCN(CC)CCCn1c2c(c(SCC(=O)Nc3ccc(OC(F)(F)F)cc3)nc1=O)CCC2
IC50 [5]: 7.92 µM (active) | IC50 [6]: 6.21 µM (active)

Cn1c(=O)cc(SCC(=O)Nc2ccc3c(c2)OCO3)c2ccccc21
EC50 [12]: > 79.4 µM (inactive) | EC50 [13]: > 79.4 µM (not active) | EC50 [14]: > 79.4 µM (not active)

CCn1cc(C(=O)O)c(=O)c2cc(F)c(N3CCN(C(S)=Nc4ccc(OC)cc4)CC3)cc21
EC50 [19]: 2.27 µM (active) | EC50 (Streptococcus): 7.71 µM (active) | AC50 (Escherichia coli): 2.52 µM (active)

COc1ccc(C(=O)NC2(C(F)(F)F)C(=O)Nc3c2c(=O)[nH]c(=O)n3CCc2ccc(OC)c(OC)c2)cc1 (stereo not drawn)
AC50 (Escherichia coli): 25.4 µM (active)

COCC(=O)Nc1nnc(Cc2ccc(OC)cc2)s1
IC50 (Estrogen receptor beta): > 50 µM (not active) | AC50 (Escherichia coli): 111 µM (active)

NS(=O)(=O)c1ccc(Nc2ccc([N+](=O)[O-])c3nonc23)cc1
IC50 [10]: 39.7 µM (active) | IC50 [11]: > 100 µM (inactive) | IC50 (Prothrombin): 36.1 µM (active)
